Data from patent publication US5132291A, “Antivirals and methods for increasing the antiviral activity of AZT” (priority 1989, dated 1992).
Where two headings read alike, the source gives them in different places.

Experiments:
SAH hydrolase = SAH hydrolase inhibition; format: biochemical
Procedure: The effect of incubation time and AICA riboside concentration on SAH hydrolase activity was determined as follows. Five samples of SAH hydrolase were incubated at the following AICA riboside concentrations: 0, 10, 25, 50 and 100 μM. The incubation buffer consisted of 25 mM potassium phosphate pH 7.0, 1 mM EDTA, 1 mM, DTT and 0.04% BSA. The total enzyme added to incubation mixture was 10 μg. At indicated times, 10 μl of sample was withdrawn and assayed in the following assay system: 25 mM potassium phosphate, pH 7.0, 40 mM DL-Homocysteine, 1 mM EDTA, 1 mM DTT, 10 μM EHNA, 0.1% BSA and 10 μM U-^14 C Adenosine (590 m Ci/mmole). The reaction was stopped by adding 15 μl of 30% TCA. The samples were then centrifuged and 15 μl were removed and applied to Kodak cellulose 13254 TLC plates along with SAH and adenosine markers. The plates were then developed in a solvent system of 1-butanol:methanol:H2 O:ammonium hydroxide (60:20:20:2). The adenosine and S-adenosyl homocysteine were visualized under UV light and the spots were cut from the plate. Radioactivity of the spots was determined by liquid scintillation spectrometry. From a plot of the reciprocal of Kinactivation vs. 1/AICA riboside concentration the values of Ki (X-intercept) and Kmax (Y-intercept), were determined (FIG. 10(b)).

[1] = system: peripheral blood macrophages; settings: cited from earlier work
[2] = cited from earlier work
HIV = HIV syncitial forming assay using SupT-1 cells; format: cell-based
Procedure: The assay was performed following the procedure described in Example Three except that SupT-1 cells were used. Using the SupT-1 cells, the medium was not changed at day 5 post-infection and the syncitia were counted at day 5 post-infection at 40X. The results are plotted in FIGS. 5, 6(b), and 7.

[3] = system: N2 virus (replication-defective murine leukemia virus construct); test: N2 colony resistance assay on 208F rat fibroblasts; format: cell-based; settings: 0.01 μM AZT compared with 500 μM AICA riboside
Source text: As described in Example Two, several retroviral assay systems were utilized to test the antiviral activity of various purine nucleoside compounds. One assay system employed a replication-defective murine leukemia virus construct "N2") containing a selectable marker (the neomycin resistance gene). The N2 virus construct is present in the producer or "helper" cell line also called N2 which contains a second retroviral construct that encodes for the production of the retrovirus proteins necessary for packaging and which can, therefore, psuedotype the N2 vector into an infective amphotrophic murine retrovirus. […]
(§1) In this colony-forming bioassay for the characterization of antiviral compounds against retroviruses, a replication-defective retroviral vector construct having the ability to confer neomycin-resistance (U937/BAG or N2) is psuedotyped, infects a single cell, and under neomycin selection, allows the recipient cell to form a colony. Since each infection yields a neomycin-resistant cell capable of producing a discrete group of cells, colonies can be counted, resulting in a linear relationship between the number of colonies and the first order of virus concentration. […]
Neomycin selection (500 μg/ml) was begun the next day and continued for eight days post-infection, changing the media three times per week. […] All colonies with 50 or more aggregate cells were counted.

[4] = system: BAG vector pseudotyped by MA (amphotrophic murine leukemia virus); test: U937/BAG+MA colony resistance assay titered on 208F rat fibroblasts; format: cell-based; settings: 0.01 μM AZT
Procedure: A second, similar assay system was utilized in which a human macrophage line (U937) carrying the BAG retroviral vector construct (having neomycin resistance and beta-galactosidase marker genes), Cepko, PNAS, Vol. 84, p. 156-160 (1987), was infected with MA (amphotrophic MLV [murine leukemia virus]). MA was used to pseudotype the replication-defective BAG vector, which was then titered on 208F cells. According to this assay, the results of which are shown in FIG. 1c, 0.01 μM AZT and 500 μM AICA riboside were both effective against murine retroviruses. […]
as §1
After drying, the plates were stained with 2 ml of 1:20 Glemsa (Sigma) for 1 hour. […] All colonies containing 50 or more cells were scored.

HIV-1 = test: HIV syncitial forming assay using CEM-SS cells; format: cell-based; settings: AZT 0.01 μM and 0.1 μM, 24 hour preincubation before HIV infection
Source text: The following cytomorphologic infectivity bioassay was used to characterize antiviral activity against HIV-1. In the following assay a single infectious unit of virus infects a single cell and initiates a focal expression of that infection, i.e., a syncitium. Since a single infectious unit leads to a discrete response, a linear relationship exists between the number of virally-induced cytopathic effects and the first order of virus concentration. Application of this procedure in assays for virus inactivation allows for evaluation of the candidate antiviral agent.
CEM-SS (syncitium-sensitive Leu 3a-positive CEM cell line) cells were grown in RPMI 1640 cell culture media (Irvine Scientific) supplemented with 10% heat-inactivated fetal bovine serum (Gemini Bioproducts) and 1% […] glutamine (Gibco). Log-phase cells were split 1:2 with the growth medium the day prior to setting up the assay to standardize plating conditions and to assure a population of logarithmically growing cells. Ninety-six-well plates (Costar) were pretreated with 50 μl of 50 μg/ml poly-1-lysine (MW=295,000 Sigma) "PLL") and were left at room temperature for 60 minutes. Residual PLL was removed with two washes of PBS. The plates were stored in the incubator until used.
On the day of the assay, the cells were counted and enough cells were harvested to plate each well with 5.0×10^4 cells per well in a volume of 200 μl (or 20 ml of […] was appropriate for each 96-well microtitre plate).
The cells were plated out on the PLL pre-treated microtitre plates at 5.0×10^4 cells/well in a volume of 200 μl. After allowing attachment for 30 minutes at 37° C. and 5% CO2, the antiviral agent(s) were added in the noted amounts and the treated plates were pre-incubated for 24 hours.
The HIV-1 virus stock (isolated from infected H-9 cells) was diluted in growth medium to yield 100 SFU (syncytial-forming units) per well. Diluted HIV-1 virus, 20 μl, was added to appropriate wells. All the plates were then incubated for 5 days at 37° C. and 5% CO2. On day 5 post-infection, the cells were given a 100 μl media change. […]

AIDS virus = settings: cited from earlier work

NC(=O)c1nc[nH]c1N [AICA]
inhibition of SAH hydrolase (SAH hydrolase): very potent inhibitors
inhibition of SAH hydrolase (SAH hydrolase; even at a concentration as low as 10 μM): potent inhibitors

Cc1cn([C@H]2C[C@H](N=[N+]=[N-])[C@@H](CO)O2)c(=O)[nH]c1=O [AZT, 3'azido-3'deoxythymidine]
accumulation of AZT nucleotides in macrophages as compared to CEM [1]: nine-fold lower
patients with macrocytic anemia ([2]; CD4 (T4) lymphocyte count ≤200/mm^3): up to 45%
patients with granulocytopenia ([2]; CD4 count >200/mm^3): up to 40%
patients with granulocytopenia ([2]; CD4 count ≤200/mm^3): up to 55%
effectiveness against the AIDS virus (prevention of syncitial formation) (HIV; AZT 0.01 μM-1 μM, 7200 min): less than 100%
inhibition at 10 µM (HIV; Human immunodeficiency virus 1, SUP-T1, 120 h, read-out: effectiveness against the AIDS virus (prevention of syncitial formation)): 100%
antiviral activity (neomycin-resistant colonies) [3]: somewhat better antiviral activity than 500 μM AICA riboside
effectiveness against murine retroviruses [4]: effective
antiviral effect (number of syncitia) (HIV-1): antiviral effects

NC(=O)c1ncn([C@@H]2O[C@H](CO)[C@@H](O)[C@H]2O)n1 [ribavirin]
decrease of phosphorylation of AZT to the mono-, di-, and triphosphate forms (AIDS virus; AIDS infected and uninfected cells): approximately a factor of ten
effect on effectiveness of AZT against the AIDS virus (AIDS virus; peripheral blood lymphocytes and H9 cells): reduced the effectiveness of AZT
